Our source for the MIC, zone of inhibition and inhibition values is ChEMBL document CHEMBL2390923, “Synthesis of 7-oxabicyclo[2.2.1]hept-5-en-2-yl derivatives and their screening for antimicrobial and antioxidant properties” (2013).

Values after ≈ are worked out from the molar mass of the structure shown.

What all share (type): functional
Assay [1] has as its system Vibrio cholerae. Description: Antibacterial activity against Vibrio cholerae after 18 to 24 hrs by microdilution broth assay. (In general: In broth dilution the organism is exposed to a series of concentrations in liquid medium.)
Assay [2] deals with Bacillus subtilis. Description: Antibacterial activity against Bacillus subtilis after 18 to 24 hrs by microdilution broth assay.
The subject of assay [3] is Klebsiella pneumoniae. The assay can be described thus: Antibacterial activity against Klebsiella pneumoniae at 150 mg/ml after 24 hrs by well diffusion assay. As to conditions: read-out: DIZ. For orientation: In agar diffusion tests the substance spreads into inoculated agar from a disc or well.
Assay [4] concerns Radical scavenging activity. Description: Antioxidant activity assessed as DPPH radical scavenging activity after 30 mins. Further details: concentration or dose not given beside the values. On the technique in general: DPPH is a stable violet radical that fades when it is reduced.
The test system of assay [5] is Escherichia coli. Description: Antibacterial activity against Escherichia coli at 150 mg/ml after 24 hrs by well diffusion assay. As to conditions: read-out: DIZ.
For assay [6], the system named is Escherichia coli. Description: Antibacterial activity against Escherichia coli after 18 to 24 hrs by microdilution broth assay.
In assay [7] the test system is Klebsiella pneumoniae. Description: Antibacterial activity against Klebsiella pneumoniae at 125 mg/ml after 24 hrs by well diffusion assay. As to conditions: read-out: DIZ.
For assay [8], the system named is Klebsiella pneumoniae. Description: Antibacterial activity against Klebsiella pneumoniae at 100 mg/ml after 24 hrs by well diffusion assay. Particulars: read-out: DIZ.
The subject of assay [9] is Staphylococcus aureus. The assay can be described thus: Antibacterial activity against Staphylococcus aureus after 18 to 24 hrs by microdilution broth assay.
Assay [10] relates to Staphylococcus aureus. Description: Antibacterial activity against Staphylococcus aureus at 150 mg/ml after 24 hrs by well diffusion assay. As to conditions: read-out: DIZ.
Assay [11] concerns Staphylococcus aureus. The assay can be described thus: Antibacterial activity against Staphylococcus aureus at 125 mg/ml after 24 hrs by well diffusion assay. Particulars: read-out: DIZ.
Assay [12] deals with Klebsiella pneumoniae. Description: Antibacterial activity against Klebsiella pneumoniae after 18 to 24 hrs by microdilution broth assay.
The subject of assay [13] is Staphylococcus aureus. The assay can be described thus: Antibacterial activity against Staphylococcus aureus at 100 mg/ml after 24 hrs by well diffusion assay. As to conditions: read-out: DIZ.
The test system of assay [14] is Escherichia coli. Description: Antibacterial activity against Escherichia coli at 100 mg/ml after 24 hrs by well diffusion assay. Particulars: read-out: DIZ.
Assay [15] relates to Escherichia coli. The assay can be described thus: Antibacterial activity against Escherichia coli at 125 mg/ml after 24 hrs by well diffusion assay. Particulars: read-out: DIZ.
In assay [16] the test system is Vibrio cholerae. Description: Antibacterial activity against Vibrio cholerae at 150 mg/ml after 24 hrs by well diffusion assay. As to conditions: read-out: DIZ.
The subject of assay [17] is Vibrio cholerae. Description: Antibacterial activity against Vibrio cholerae at 125 mg/ml after 24 hrs by well diffusion assay. Particulars: read-out: DIZ.
The test system of assay [18] is Bacillus subtilis. The assay can be described thus: Antibacterial activity against Bacillus subtilis at 150 mg/ml after 24 hrs by well diffusion assay. As to conditions: read-out: DIZ.
The subject of assay [19] is Bacillus subtilis. Description: Antibacterial activity against Bacillus subtilis at 100 mg/ml after 24 hrs by well diffusion assay. Particulars: read-out: DIZ.
For assay [20], the system named is Bacillus subtilis. Description: Antibacterial activity against Bacillus subtilis at 125 mg/ml after 24 hrs by well diffusion assay. Particulars: read-out: DIZ.

As for `CCC12C=CC(O1)C(C(=O)c1ccccc1)C2c1ccccc1F` (stereo not given), the MIC (in general, the lowest concentration that inhibits growth of the organism) in [1] amounted to 625 µg/mL (≈ 1940 µM); in [2] it was 1250 µg/mL (≈ 3880 µM); in [6] it was 1250 µg/mL (≈ 3880 µM); in assay [9], 1250 µg/mL (≈ 3880 µM); in assay [12], 625 µg/mL (≈ 1940 µM). The figures for the zone of inhibition at 150000 µg/mL in assay [3], in assay [5] and in assay [10] were 14 mm, 12 mm and 16 mm, respectively. Moreover, the inhibition (in general, the share of the control response that was lost under treatment) in assay [4] was determined as 18.1%. Moreover, the zone of inhibition at 125000 µg/mL turned out to be 13 mm in assay [7] and 15 mm in [11]. Moreover, the zone of inhibition at 100000 µg/mL was 10 mm in assay [8] and 13 mm in assay [13].
For `CCC12C=CC(O1)C(C(=O)c1ccccc1)C2c1ccc(F)cc1` (stereo not given), the MIC in [1] was determined as 625 µg/mL (≈ 1940 µM); in assay [2], 625 µg/mL (≈ 1940 µM); in [6] it was 625 µg/mL (≈ 1940 µM); in assay [9] it was 1250 µg/mL (≈ 3880 µM); in assay [12], 625 µg/mL (≈ 1940 µM). The zone of inhibition at 100000 µg/mL in [14] was determined as 10 mm. The zone of inhibition at 150000 µg/mL in [3] was determined as 12 mm; in assay [5], 13 mm; in assay [10], 15 mm. Also, the inhibition in assay [4] was 42.4%. In addition, the zone of inhibition at 125000 µg/mL in [11] was found to be 13 mm; in assay [15], 11 mm.
In the case of `Cc1cc(C(C)(C)C)c(O)c(C(C)(C)C)c1`, in assay [4], the inhibition came out at 58.4%.
Regarding `CCC12C=CC(O1)C(C(=O)c1ccccc1)C2c1ccc(Br)cc1` (stereo not given), the MIC in assay [1] amounted to 625 µg/mL (≈ 1630 µM); in assay [2], 312 µg/mL (≈ 814 µM); in assay [6] it was 312 µg/mL (≈ 814 µM); in [9] it was 156 µg/mL (≈ 407 µM); in assay [12] it was 156 µg/mL (≈ 407 µM). The zone of inhibition at 150000 µg/mL in assay [16] was 12 mm; in assay [18], 12 mm; in assay [3] it was 12 mm; in [5], 18 mm; in assay [10] it was 14 mm. The zone of inhibition at 125000 µg/mL in assay [17] came to 11 mm; in assay [7] it was 11 mm; in assay [11], 13 mm; in [15] it was 14 mm. Also, the inhibition in [4] amounted to 30.5%. Also, the zone of inhibition at 100000 µg/mL in assay [13] came out at 11 mm.
With `CCC12C=CC(O1)C(C(=O)c1cccc(Br)c1)C2c1ccccc1` (stereo not given), the minimum inhibitory concentration (MIC) is 625 µg/mL (≈ 1630 µM) in assay [1]; 625 µg/mL (≈ 1630 µM) in assay [2]; 625 µg/mL (≈ 1630 µM) in assay [6]; 625 µg/mL (≈ 1630 µM) in [9]; 312 µg/mL (≈ 814 µM) in [12]. For the same compound, the zone of inhibition at 150000 µg/mL in assay [16] stood at 12 mm; in assay [5] it was 14 mm. The inhibition in assay [4] stood at 36%. Further, the zone of inhibition at 125000 µg/mL in [15] turned out to be 12 mm.
Turning to `CCC12C=CC(O1)C(C(=O)c1ccccc1)C2c1ccccc1` (stereo not given), the minimal inhibitory concentration (MIC) was found to be 1250 µg/mL (≈ 4110 µM) in [1]; 312 µg/mL (≈ 1030 µM) in assay [2]; 312 µg/mL (≈ 1030 µM) in [6]; 625 µg/mL (≈ 2050 µM) in assay [9]; 4 µg/mL (≈ 13.1 µM) in assay [12]. Moreover, the zone of inhibition at 100000 µg/mL in [19] was found to be 12 mm; in assay [8] it was 13 mm. In addition, the zone of inhibition at 150000 µg/mL in assay [18] is 18 mm; in assay [3], 19 mm; in assay [5], 15 mm. Besides, the zone of inhibition at 125000 µg/mL in [20] worked out at 16 mm; in assay [7], 16 mm; in [15], 14 mm. Further, the inhibition in [4] stood at 58.9%.
Consider `CCC12C=CC(O1)C(C(=O)c1ccccc1)C2c1ccccc1Br` (stereo not given), for which the minimal inhibitory concentration (MIC) in assay [1] was found to be 625 µg/mL (≈ 1630 µM); in assay [2], 1250 µg/mL (≈ 3260 µM); in [6] it was 1250 µg/mL (≈ 3260 µM); in assay [9], 1250 µg/mL (≈ 3260 µM); in [12], 625 µg/mL (≈ 1630 µM). Moreover, the zone of inhibition at 100000 µg/mL in assay [14] is 11 mm; in assay [13], 13 mm. Further, the zone of inhibition at 150000 µg/mL was determined as 11 mm in assay [3], 15 mm in assay [5] and 16 mm in [10]. Also, the inhibition in [4] is 17.7%. Also, the zone of inhibition at 125000 µg/mL in assay [11] and in assay [15] was 14 mm each time.
With `CCC12C=CC(O1)C(C(=O)c1ccccc1)C2c1cccc(Br)c1` (stereo not given), the MIC was found to be 625 µg/mL (≈ 1630 µM) in [1]; 312 µg/mL (≈ 814 µM) in assay [2]; 312 µg/mL (≈ 814 µM) in assay [6]; 31 µg/mL (≈ 80.9 µM) in assay [9]; 156 µg/mL (≈ 407 µM) in [12]. For the same compound, the zone of inhibition at 150000 µg/mL in assay [16] was found to be 11 mm; in assay [18] it was 17 mm; in assay [3], 14 mm; in assay [5], 15 mm; in assay [10], 15 mm. Besides, the zone of inhibition at 100000 µg/mL in [19] and in assay [13] was 11 mm in each case. Also, the zone of inhibition at 125000 µg/mL is 14 mm in assay [20], 12 mm in [7], 12 mm in assay [11] and 12 mm in [15]. The inhibition in assay [4] came to 23.2%.
As to `CCC12C=CC(O1)C(C(=O)c1ccccc1)C2c1ccc([N+](=O)[O-])cc1` (stereo not given), the minimal inhibitory concentration (MIC) turned out to be 1250 µg/mL (≈ 3580 µM) in assay [1]; 1250 µg/mL (≈ 3580 µM) in assay [2]; 1250 µg/mL (≈ 3580 µM) in [6]; 1250 µg/mL (≈ 3580 µM) in [9]; 625 µg/mL (≈ 1790 µM) in assay [12]. The zone of inhibition at 100000 µg/mL in assay [14] was found to be 12 mm. Further, in assay [4], the inhibition is 21.6%. In addition, the zone of inhibition at 150000 µg/mL in [5] is 14 mm; in [10], 13 mm. In addition, in assay [15], the zone of inhibition at 125000 µg/mL came to 14 mm.
`CCC12C=CC(O1)C(C(=O)c1ccccc1)C2c1ccc(C#N)cc1` (stereo not given): the minimum inhibitory concentration (MIC) in assay [1] is 1250 µg/mL (≈ 3790 µM); in assay [2], 156 µg/mL (≈ 474 µM); in assay [6] it was 156 µg/mL (≈ 474 µM); in [9], 156 µg/mL (≈ 474 µM); in assay [12] it was 156 µg/mL (≈ 474 µM). The zone of inhibition at 100000 µg/mL worked out at 11 mm in assay [14], 11 mm in assay [19] and 10 mm in [8]. For the same compound, the zone of inhibition at 150000 µg/mL amounted to 15 mm in assay [18], 15 mm in assay [3], 16 mm in [5] and 13 mm in assay [10]. In addition, the zone of inhibition at 125000 µg/mL was determined as 13 mm in [20], 13 mm in assay [7], 11 mm in assay [11] and 15 mm in [15]. The inhibition in assay [4] came out at 58.9%.
In the case of `CCC12C=CC(O1)C(C(=O)c1ccccc1)C2c1cccc(OC)c1` (stereo not given), the minimal inhibitory concentration (MIC) was determined as 625 µg/mL (≈ 1870 µM) in assay [1]; 625 µg/mL (≈ 1870 µM) in assay [2]; 625 µg/mL (≈ 1870 µM) in assay [6]; 625 µg/mL (≈ 1870 µM) in assay [9]; 312 µg/mL (≈ 933 µM) in [12]. Also, the zone of inhibition at 100000 µg/mL in assay [14] was 13 mm. The zone of inhibition at 150000 µg/mL in assay [3] was found to be 13 mm; in assay [5], 16 mm; in assay [10], 17 mm. For the same compound, in assay [4], the inhibition was determined as 33.4%. The zone of inhibition at 125000 µg/mL stood at 12 mm in assay [7], 15 mm in [11] and 15 mm in [15].
